Where “and” joins values, the source holds several entries; their conditions need not be identical. Equal entries are not always repeated. Structures can show the parent of a compound that is named as a salt.

The results in this text go back to patent US20050043346A1, “Pyridylpyrrole derivatives active as kinase inhibitors” (Pharmacia Italia S.p.A., priority 2003, published 2005).

Cdc7/Dbf4, sequence (O00311 whole entry): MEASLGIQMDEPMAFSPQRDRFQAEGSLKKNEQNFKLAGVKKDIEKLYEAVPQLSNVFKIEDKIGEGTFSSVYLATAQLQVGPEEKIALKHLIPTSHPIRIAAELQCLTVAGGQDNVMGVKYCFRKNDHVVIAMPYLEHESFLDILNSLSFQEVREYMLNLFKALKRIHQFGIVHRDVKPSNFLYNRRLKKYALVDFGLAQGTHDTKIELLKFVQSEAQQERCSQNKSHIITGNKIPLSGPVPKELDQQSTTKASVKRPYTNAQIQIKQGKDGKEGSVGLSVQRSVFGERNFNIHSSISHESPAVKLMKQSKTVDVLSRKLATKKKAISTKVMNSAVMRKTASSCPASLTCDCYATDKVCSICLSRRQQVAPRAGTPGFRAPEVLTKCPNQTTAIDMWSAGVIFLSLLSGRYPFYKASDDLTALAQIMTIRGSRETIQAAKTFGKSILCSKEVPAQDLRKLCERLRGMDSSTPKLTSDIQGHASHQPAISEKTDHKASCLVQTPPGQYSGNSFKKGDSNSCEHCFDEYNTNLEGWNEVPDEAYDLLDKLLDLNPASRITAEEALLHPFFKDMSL
Cdc7/Dbf4, sequence (Q9UBU7 whole entry partner): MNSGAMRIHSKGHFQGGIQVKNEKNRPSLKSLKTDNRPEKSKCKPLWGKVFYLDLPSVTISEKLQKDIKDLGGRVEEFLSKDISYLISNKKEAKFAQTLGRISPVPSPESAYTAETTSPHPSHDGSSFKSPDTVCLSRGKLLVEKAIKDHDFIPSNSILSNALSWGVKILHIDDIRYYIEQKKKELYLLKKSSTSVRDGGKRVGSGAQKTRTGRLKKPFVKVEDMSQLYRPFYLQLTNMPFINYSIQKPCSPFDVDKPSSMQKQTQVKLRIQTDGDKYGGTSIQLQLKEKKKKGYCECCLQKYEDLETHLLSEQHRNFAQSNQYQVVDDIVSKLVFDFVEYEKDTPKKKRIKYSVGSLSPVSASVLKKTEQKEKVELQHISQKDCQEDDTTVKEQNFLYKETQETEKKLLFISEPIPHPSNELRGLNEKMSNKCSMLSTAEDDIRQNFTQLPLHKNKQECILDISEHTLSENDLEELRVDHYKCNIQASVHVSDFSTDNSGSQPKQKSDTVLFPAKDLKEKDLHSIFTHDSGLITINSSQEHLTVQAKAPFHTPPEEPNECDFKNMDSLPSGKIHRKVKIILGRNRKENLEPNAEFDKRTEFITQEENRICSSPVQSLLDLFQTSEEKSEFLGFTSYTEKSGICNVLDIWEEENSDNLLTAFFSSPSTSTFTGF

The first assay concerns the target cdk2/Cyclin A (Homo sapiens, UniProt P24941). In words: Inhibition assay of cdk2/Cyclin A activity (SPA). In kind it is biochemical. The conditions noted are these: Cyclin A/CDK2 complex, histone H1 substrate, 10 μM ATP. How it is done:
The inhibiting activity of putative cdk/cyclin inhibitors and the potency of selected compounds may be determined through a method of assay based on the use of the SPA technology (Amersham Pharmacia Biotech).
The assay consists of the transfer of radioactivity labelled phosphate moiety by the kinase to a biotinylated substrate. The resulting 33P-labelled biotinylated product is allowed to bind to streptavidin-coated SPA beads (biotin capacity 130 pmol/mg), and light emitted was measured in a scintillation counter.
Kinase reaction: 4 μM in house biotinylated histone H1 (Sigma #H-5505) substrate, 10 μM ATP (0.1 microCi P^33γ-ATP), 1.1 nM Cyclin A/CDK2 complex, inhibitor in a final volume of 30 μl buffer (TRIS HCl 10 mM pH 7.5, MgCl2 10 mM, DTT 7.5 mM+0.2 mg/ml BSA) were added to each well of a 96 U bottom. After incubation for 60 min at room temperature, the reaction was stopped by addition of 100 μl PBS buffer containing 32 mM EDTA, 500 μM cold ATP, 0.1% Triton X100 and 10 mg/ml streptavidin coated SPA beads. After 20 min incubation, 110 μL of suspension were withdrawn and transferred into 96-well OPTIPLATEs containing 100 μl of 5M CsCl. After 4 hours, the plates were read for 2 min in a Packard TOP-Count radioactivity reader.
IC50 determination: inhibitors were tested at different concentrations ranging from 0.0015 to 10 μM. […]
Broadly, the IC50 is the concentration at which inhibition is half-maximal. The compound `O=C1NCCc2[nH]c(-c3ccnc(NC4CCCC4)c3)cc21` [2-[2-(cyclopentylamino)pyridin-4-yl]-1,5,6,7-tetrahydro-4H-pyrrolo[3,2-c]pyridin-4-one] came in with an IC50 of 40 nM.

The next assay has as its target Cdc7/Dbf4 (Homo sapiens, UniProt O00311). In words: Inhibition assay of Cdc7/Dbf4 activity (Dowex resin capture, MCM2 substrate). It counts as biochemical. The conditions noted are these: Cdc7/Dbf4, MCM2 substrate 6 μM, ATP 2 μM. How it is done: The inhibiting activity of putative Cdc7 inhibitors and the potency of selected compounds is determined through a method of assay based on the use of Dowex resin capture technology. The assay consists of the transfer of radioactivity labeled phosphate moiety by the kinase to an acceptor substrate. The resulting 33P-labeled product is separated from unreacted tracer, transferred into a scintillation cocktail and light emitted is measured in a scintillation counter.
The inhibition assay of Cdc7/Dbf4 activity is performed according to the following protocol. The MCM2 substrate is trans-phosphorylated by the Cdc7/Dbf4 complex in the presence of ATP traced with γ^33-ATP. The reaction is stopped by addition of Dowex resin in the presence of formic acid. Dowex resin particles capture unreacted γ^33-ATP and drag it to the bottom of the well while ^33P phosphorylated MCM2 substrate remains in solution. The supernatant is collected, transferred into Optiplate plates and the extent of substrate phosphorylation is evaluated by β counting.
The inhibition assay of Cdc7/Dbf4 activity was performed in 96 wells plate according to the following protocol.
The solvent for test compounds contained 3% DMSO. (final concentration 1%) • 10 μl substrate MCM2 (6 μM final concentration), a mixture of cold ATP (2 μM final concentration) and radioactive ATP (1/5000 molar ratio with cold ATP). • 10 μl enzyme (Cdc7/Dbf4, 2 nM final concentration) that started the reaction. The buffer of the reaction consisted in 50 mM HEPES pH 7.9 containing 15 mM MgCl2, 2 mM DTT, 3 μM NaVO3, 2 mM glycerophosphate and 0.2 mg/ml BSA.
After incubation for 60 minutes at room temperature, the reaction was stopped by adding to each well 150 μl of Dowex resin in the presence of 150 mM formic acid. After another 60 min incubation, 50 μL of suspension were withdrawn and transferred into 96-well OPTIPLATEs containing 150 μl of MicroScint 40 (Packard); after 5-10 minutes shaking the plates were read for 1 min in a Packard TOP-Count radioactivity reader.
Experimental data were analyzed by the computer program Assay Explorer using the four parameter logistic equation: y=bottom+(top−bottom)/(1+10^((log IC50−x)*slope)) where x is the logarithm of the inhibitor concentration, y is the response; y starts at bottom and goes to top with a sigmoid shape.
With `CCC1CNC(=O)c2cc(-c3ccncc3F)[nH]c21` [(7R,7S)-2-(3-fluoropyridin-4-yl)-7-ethyl-1,5,6,7-tetrahydro-4H-pyrrolo[3,2-c]pyridin-4-one], the midpoint of inhibition, the IC50, lay at 1 nM. The same measure, in the same setting: for `O=C1NCC(Cc2ccccc2)c2[nH]c(-c3ccncc3)cc21` [(7R,7S)-7-benzyl-2-pyridin-4-yl-1,5,6,7-tetrahydro-4H-pyrrolo[3,2-c]pyridin-4-one] the value was 17 nM; for `CC(C)CC1CNC(=O)c2cc(-c3ccncc3)[nH]c21` [(7R,7S)-7-isobutyl-2-pyridin-4-yl-1,5,6,7-tetrahydro-4H-pyrrolo[3,2-c]pyridin-4-one hydrochloride], 5 nM. The same measure, in the same setting: for `O=C1NC(Cc2ccccc2)Cc2[nH]c(-c3ccncc3)cc21` [(6R,6S)-6-benzyl-2-pyridin-4-yl-1,5,6,7-tetrahydro-4H-pyrrolo[3,2-c]pyridin-4-one] the value was 16 nM; for `O=C1NCCc2[nH]c(-c3ccnc4[nH]ccc34)cc21` [2-(1H-pyrrolo[2,3-b]pyridin-4-yl)-1,5,6,7-tetrahydro-4H-pyrrolo[3,2-c]pyridin-4-one hydrochloride], 16 nM. Same read-out and setting: for `O=C1NCCc2[nH]c(-c3ccncc3F)cc21` [2-(3-fluoropyridin-4-yl)-1,5,6,7-tetrahydro-4H-pyrrolo[3,2-c]pyridin-4-one hydrochloride] the value was 8 nM.

On to `CC(C)C1CNC(=O)c2cc(-c3ccncc3F)[nH]c21` [(7R,7S)-2-(3-fluoropyridin-4-yl)-7-isopropyl-1,5,6,7-tetrahydro-4H-pyrrolo[3,2-c]pyridin-4-one], for which 3 nM corresponded to half-maximal inhibition (IC50). Same read-out and setting: for `O=C1NC(C2CCCCC2)Cc2[nH]c(-c3ccncc3)cc21` [(6R,6S)-6-cyclohexyl-2-pyridin-4-yl-1,5,6,7-tetrahydro-4H-pyrrolo[3,2-c]pyridin-4-one] the value was 8 nM; for `C[C@H]1Cc2[nH]c(-c3ccncc3)cc2C(=O)N1` [(6S)-6-methyl-2-pyridin-4-yl-1,5,6,7-tetrahydro-4H-pyrrolo[3,2-c]pyridin-4-one], 14 nM; for `CC1CNC(=O)c2cc(-c3ccncc3)[nH]c21` (single isomer, unassigned) [(7R or 7S)-7-methyl-2-pyridin-4-yl-1,5,6,7-tetrahydro-4H-pyrrolo[3,2-c]pyridin-4-one], 4 nM and 7 nM.

As to `CC(C)C1Cc2[nH]c(-c3ccncc3)cc2C(=O)N1` [(6R,6S)-6-isopropyl-2-pyridin-4-yl-1,5,6,7-tetrahydro-4H-pyrrolo[3,2-c]pyridin-4-one hydrochloride], half-maximal inhibition (IC50) was put at 9 nM.

For the compound `O=C1NCC2(CC2)c2[nH]c(-c3ccncc3)cc21` [2′-pyridin-4-yl-5′,6′-dihydrospiro[cyclopropane-1,7′-pyrrolo[3,2-c]pyridin]-4′(1′H)-one], the IC50 stood at 2 nM. Same read-out and setting: for `CC(C)CC1CNC(=O)c2cc(-c3ccncc3F)[nH]c21` [(7R,7S)-2-(3-fluoropyridin-4-yl)-7-isobutyl-1,5,6,7-tetrahydro-4H-pyrrolo[3,2-c]pyridin-4-one] the value was 4 nM; for `O=C1NC(CCc2ccccc2)Cc2[nH]c(-c3ccncc3)cc21` [(6R,6S)-6-(2-phenylethyl)-2-pyridin-4-yl-1,5,6,7-tetrahydro-4H-pyrrolo[3,2-c]pyridin-4-one hydrochloride], 26 nM; for `Cc1c(-c2ccncc2)[nH]c2c1C(=O)NCC2` [3-methyl-2-pyridin-4-yl-1,5,6,7-tetrahydro-4H-pyrrolo[3,2-c]pyridin-4-one hydrochloride], 3 nM. The same measure, in the same setting: for `CC(C)C1CNC(=O)c2cc(-c3ccncc3)[nH]c21` [(7R,7S)-7-isopropyl-2-pyridin-4-yl-1,5,6,7-tetrahydro-4H-pyrrolo[3,2-c]pyridin-4-one] the value was 20 nM; for `CC1(C)CNC(=O)c2cc(-c3ccncc3)[nH]c21` [7,7-dimethyl-2-pyridin-4-yl-1,5,6,7-tetrahydro-4H-pyrrolo[3,2-c]pyridin-4-one hydrochloride], 3 nM; for `CCC1(CC)CNC(=O)c2cc(-c3ccncc3)[nH]c21` [7,7-diethyl-2-pyridin-4-yl-1,5,6,7-tetrahydro-4H-pyrrolo[3,2-c]pyridin-4-one hydrochloride], 7 nM. On the same count and under the same terms, for `O=C1NC(Cc2ccccc2)Cc2[nH]c(-c3ccncc3)cc21` (single isomer, unassigned) [(6R or 6S)-6-benzyl-2-pyridin-4-yl-1,5,6,7-tetrahydro-4H-pyrrolo[3,2-c]pyridin-4-one] the value was 20 nM and 9 nM; for `O=C1NC(C2CC2)Cc2[nH]c(-c3ccncc3)cc21` [(6R,6S)-6-cyclopropyl-2-pyridin-4-yl-1,5,6,7-tetrahydro-4H-pyrrolo[3,2-c]pyridin-4-one], 2 nM; for `CC1CNC(=O)c2cc(-c3ccncc3)[nH]c21` [(7R,7S)-7-methyl-2-pyridin-4-yl-1,5,6,7-tetrahydro-4H-pyrrolo[3,2-c]pyridin-4-one hydrochloride], 5 nM. In turn, `CCC(C)C1CNC(=O)c2cc(-c3ccncc3)[nH]c21` [(7R,7S)-7-sec-butyl-2-pyridin-4-yl-1,5,6,7-tetrahydro-4H-pyrrolo[3,2-c]pyridin-4-one] displayed an IC50 of 3 nM.
